Measured values taken from ChEMBL document CHEMBL1201862, “PubChem BioAssay data set” (2004).
The source made the active and inactive calls.

Columns and labels:
Type in all cases: functional
[1] = biological target: Glycogen synthase kinase-3 alpha (Homo sapiens, UniProt P49840); test: human GSK3 alpha kinase inhibition, dose response, selectivity assay for GSK3beta inhibitor project, biochemical, microfluidics, dry powder samples, set 2 (AID 623978)
[2] = biological target: Glycogen synthase kinase-3 beta (Homo sapiens, UniProt P49841); test: GSK3beta kinase inhibitors, dose response, biochemical, microfluidics, dry powder samples, set 2 (AID 623989)
Sequence of Glycogen synthase kinase-3 beta (P49841 whole entry): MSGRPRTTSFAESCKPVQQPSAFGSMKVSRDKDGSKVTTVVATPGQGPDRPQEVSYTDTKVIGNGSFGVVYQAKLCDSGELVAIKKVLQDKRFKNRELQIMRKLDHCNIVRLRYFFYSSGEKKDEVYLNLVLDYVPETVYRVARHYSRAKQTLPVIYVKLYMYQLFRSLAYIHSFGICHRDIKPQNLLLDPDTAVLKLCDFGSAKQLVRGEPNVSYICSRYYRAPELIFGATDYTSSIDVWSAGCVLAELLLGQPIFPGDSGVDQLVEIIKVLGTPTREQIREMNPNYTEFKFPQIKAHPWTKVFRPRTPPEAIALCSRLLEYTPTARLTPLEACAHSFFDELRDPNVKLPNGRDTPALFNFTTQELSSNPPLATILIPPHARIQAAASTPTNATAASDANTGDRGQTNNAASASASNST

[3] = biological target: Serine/threonine-protein kinase Chk2 (Homo sapiens, UniProt O96017);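 further: CHEK2 entry within a kinome-wide screening panel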
Sequence of Serine/threonine-protein kinase Chk2 (O96017 whole entry, canonical isoform): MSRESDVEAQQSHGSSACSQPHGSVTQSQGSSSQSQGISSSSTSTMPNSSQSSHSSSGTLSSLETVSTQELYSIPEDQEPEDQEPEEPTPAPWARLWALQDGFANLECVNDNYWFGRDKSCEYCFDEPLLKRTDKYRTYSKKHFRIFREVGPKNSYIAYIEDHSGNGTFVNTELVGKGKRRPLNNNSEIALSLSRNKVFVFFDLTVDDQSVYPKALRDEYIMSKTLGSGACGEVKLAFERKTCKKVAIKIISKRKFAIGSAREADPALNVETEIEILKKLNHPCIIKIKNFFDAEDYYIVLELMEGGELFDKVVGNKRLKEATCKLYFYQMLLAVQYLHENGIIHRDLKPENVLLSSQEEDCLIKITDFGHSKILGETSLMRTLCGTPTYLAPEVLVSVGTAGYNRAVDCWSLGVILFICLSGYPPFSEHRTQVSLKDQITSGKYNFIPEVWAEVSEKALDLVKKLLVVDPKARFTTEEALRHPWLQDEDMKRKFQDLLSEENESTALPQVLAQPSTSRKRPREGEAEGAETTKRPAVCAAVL

[4] = biological target: Casein kinase I isoform alpha (Homo sapiens, UniProt P48729)
Sequence of Casein kinase I isoform alpha (P48729 whole entry, canonical isoform): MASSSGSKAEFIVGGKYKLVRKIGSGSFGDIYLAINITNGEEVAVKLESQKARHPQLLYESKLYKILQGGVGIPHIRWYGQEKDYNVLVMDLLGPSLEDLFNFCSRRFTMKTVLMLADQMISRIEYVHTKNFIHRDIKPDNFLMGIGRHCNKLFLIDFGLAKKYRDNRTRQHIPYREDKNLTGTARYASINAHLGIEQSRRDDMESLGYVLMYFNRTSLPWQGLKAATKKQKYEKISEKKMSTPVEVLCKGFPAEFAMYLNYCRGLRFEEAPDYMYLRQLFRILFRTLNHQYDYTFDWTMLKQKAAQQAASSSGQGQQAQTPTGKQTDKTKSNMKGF

[5] = biological target: Mitogen-activated protein kinase 8 (Homo sapiens, UniProt P45983);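 further: value comes from one member of a kinome-wide kinase profiling panel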
[6] = biological target: Calcium/calmodulin-dependent protein kinase type II subunit gamma (Homo sapiens, UniProt Q13555)
[7] = biological target: Protein-tyrosine kinase 2-beta (Homo sapiens, UniProt Q14289)
[8] = biological target: Proto-oncogene tyrosine-protein kinase ROS (Homo sapiens, UniProt P08922);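 further: ROS1 tested as one member of a kinome-wide kinase panel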
Sequence of Proto-oncogene tyrosine-protein kinase ROS (P08922 whole entry): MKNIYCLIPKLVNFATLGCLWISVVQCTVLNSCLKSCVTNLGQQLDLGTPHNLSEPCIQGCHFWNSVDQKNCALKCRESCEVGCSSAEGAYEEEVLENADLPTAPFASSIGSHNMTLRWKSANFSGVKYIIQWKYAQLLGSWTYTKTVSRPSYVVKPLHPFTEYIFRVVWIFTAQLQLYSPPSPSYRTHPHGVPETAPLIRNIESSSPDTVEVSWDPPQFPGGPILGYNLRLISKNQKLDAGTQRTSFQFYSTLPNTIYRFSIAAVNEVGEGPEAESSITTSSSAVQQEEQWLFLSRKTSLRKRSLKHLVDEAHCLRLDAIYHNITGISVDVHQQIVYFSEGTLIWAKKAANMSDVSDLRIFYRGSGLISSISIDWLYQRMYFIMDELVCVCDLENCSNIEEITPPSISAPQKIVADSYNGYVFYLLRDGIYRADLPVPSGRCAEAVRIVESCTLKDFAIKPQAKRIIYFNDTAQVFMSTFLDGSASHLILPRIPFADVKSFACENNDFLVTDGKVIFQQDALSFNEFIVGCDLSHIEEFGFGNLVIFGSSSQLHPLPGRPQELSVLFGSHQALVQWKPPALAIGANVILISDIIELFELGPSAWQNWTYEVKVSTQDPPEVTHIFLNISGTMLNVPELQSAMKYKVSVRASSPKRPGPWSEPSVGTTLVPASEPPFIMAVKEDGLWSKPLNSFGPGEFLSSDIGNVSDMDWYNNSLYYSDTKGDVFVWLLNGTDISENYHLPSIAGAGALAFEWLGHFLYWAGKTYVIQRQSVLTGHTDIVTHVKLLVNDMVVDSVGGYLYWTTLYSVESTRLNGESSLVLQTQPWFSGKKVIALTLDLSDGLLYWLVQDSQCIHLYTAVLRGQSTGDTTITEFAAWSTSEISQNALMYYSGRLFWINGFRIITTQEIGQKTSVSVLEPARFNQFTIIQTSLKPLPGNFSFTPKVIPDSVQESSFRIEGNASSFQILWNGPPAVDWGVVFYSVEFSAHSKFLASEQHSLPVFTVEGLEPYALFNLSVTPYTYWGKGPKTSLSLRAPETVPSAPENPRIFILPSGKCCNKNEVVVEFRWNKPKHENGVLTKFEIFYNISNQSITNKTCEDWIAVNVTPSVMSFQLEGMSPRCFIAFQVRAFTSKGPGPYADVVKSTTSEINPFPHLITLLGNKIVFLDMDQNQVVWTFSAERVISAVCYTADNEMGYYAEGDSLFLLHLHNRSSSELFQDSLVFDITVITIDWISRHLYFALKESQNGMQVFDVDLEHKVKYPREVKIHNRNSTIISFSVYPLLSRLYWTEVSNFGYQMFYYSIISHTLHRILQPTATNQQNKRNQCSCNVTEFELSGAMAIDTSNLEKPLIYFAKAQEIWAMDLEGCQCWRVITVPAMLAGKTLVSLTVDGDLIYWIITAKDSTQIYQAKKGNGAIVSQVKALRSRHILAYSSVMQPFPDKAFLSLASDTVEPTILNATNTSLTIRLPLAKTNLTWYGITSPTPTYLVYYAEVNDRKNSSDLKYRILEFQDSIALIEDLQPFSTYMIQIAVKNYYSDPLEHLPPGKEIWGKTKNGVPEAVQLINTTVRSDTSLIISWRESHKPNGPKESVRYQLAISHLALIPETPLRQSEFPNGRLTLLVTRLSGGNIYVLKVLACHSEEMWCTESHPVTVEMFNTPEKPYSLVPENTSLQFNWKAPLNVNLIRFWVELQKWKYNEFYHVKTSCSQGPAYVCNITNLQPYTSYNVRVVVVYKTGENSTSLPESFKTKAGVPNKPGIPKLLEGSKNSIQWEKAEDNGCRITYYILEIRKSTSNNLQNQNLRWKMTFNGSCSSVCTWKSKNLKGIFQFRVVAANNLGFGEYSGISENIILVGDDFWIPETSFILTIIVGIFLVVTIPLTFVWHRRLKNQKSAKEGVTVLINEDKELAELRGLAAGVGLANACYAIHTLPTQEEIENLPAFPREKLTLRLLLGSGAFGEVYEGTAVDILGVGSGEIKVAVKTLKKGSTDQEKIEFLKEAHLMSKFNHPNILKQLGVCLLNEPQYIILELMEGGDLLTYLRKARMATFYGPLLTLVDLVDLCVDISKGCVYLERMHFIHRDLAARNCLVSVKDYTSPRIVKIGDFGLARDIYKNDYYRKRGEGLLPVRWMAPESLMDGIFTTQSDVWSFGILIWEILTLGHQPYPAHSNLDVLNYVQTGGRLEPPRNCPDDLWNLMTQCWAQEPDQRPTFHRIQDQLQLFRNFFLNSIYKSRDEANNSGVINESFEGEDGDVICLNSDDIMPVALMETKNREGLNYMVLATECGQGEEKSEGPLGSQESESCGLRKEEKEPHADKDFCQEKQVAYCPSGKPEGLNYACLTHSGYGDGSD

[9] = biological target: cGMP-dependent protein kinase 1 (Homo sapiens, UniProt Q13976);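 further: value from a kinome panel screen with PRKG1 as the panel member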
[10] = biological target: Mitogen-activated protein kinase 12 (Homo sapiens, UniProt P53778);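 further: measured as one member of a kinome-wide kinase profiling panel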
[11] = biological target: Tyrosine-protein kinase ABL1 (Homo sapiens, UniProt P00519)
Sequence of Tyrosine-protein kinase ABL1 (P00519 whole entry): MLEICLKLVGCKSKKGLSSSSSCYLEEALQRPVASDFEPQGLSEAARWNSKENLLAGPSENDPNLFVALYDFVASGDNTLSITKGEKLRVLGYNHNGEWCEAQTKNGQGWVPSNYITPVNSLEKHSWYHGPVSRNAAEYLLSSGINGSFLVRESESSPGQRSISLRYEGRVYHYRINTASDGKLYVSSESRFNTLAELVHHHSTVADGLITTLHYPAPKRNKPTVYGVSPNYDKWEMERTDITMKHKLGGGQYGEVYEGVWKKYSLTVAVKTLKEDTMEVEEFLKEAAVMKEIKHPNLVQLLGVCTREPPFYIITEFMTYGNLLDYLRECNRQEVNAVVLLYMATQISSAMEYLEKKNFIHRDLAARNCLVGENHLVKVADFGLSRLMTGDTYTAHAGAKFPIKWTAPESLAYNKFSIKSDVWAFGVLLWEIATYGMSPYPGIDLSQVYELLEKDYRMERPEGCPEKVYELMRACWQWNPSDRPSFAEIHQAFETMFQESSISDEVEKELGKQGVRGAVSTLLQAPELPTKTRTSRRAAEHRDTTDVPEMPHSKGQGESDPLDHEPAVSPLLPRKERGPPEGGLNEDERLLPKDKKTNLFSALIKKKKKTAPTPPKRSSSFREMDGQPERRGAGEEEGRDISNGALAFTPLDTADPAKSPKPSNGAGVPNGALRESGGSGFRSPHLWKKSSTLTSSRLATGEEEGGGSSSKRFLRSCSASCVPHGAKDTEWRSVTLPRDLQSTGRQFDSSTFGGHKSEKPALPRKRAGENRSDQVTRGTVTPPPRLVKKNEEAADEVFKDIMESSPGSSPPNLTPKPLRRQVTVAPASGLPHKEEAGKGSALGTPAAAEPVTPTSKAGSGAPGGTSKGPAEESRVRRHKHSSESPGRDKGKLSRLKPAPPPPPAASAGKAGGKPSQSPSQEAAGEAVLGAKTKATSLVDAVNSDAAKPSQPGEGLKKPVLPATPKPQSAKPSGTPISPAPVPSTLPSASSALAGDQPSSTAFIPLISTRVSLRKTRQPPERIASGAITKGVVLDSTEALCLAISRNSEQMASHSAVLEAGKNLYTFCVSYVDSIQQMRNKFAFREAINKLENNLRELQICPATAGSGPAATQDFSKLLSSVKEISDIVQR

[12] = biological target: Protein kinase C delta type (Homo sapiens, UniProt Q05655)
[13] = biological target: Ribosomal protein S6 kinase beta-1 (Homo sapiens, UniProt P23443);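 further: measured as one member of a kinome-wide profiling panel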
[14] = biological target: Protein kinase C iota type (Homo sapiens, UniProt P41743);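 further: measured within a kinome-wide kinase panel, PRKCI as panel member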
[15] = biological target: Protein-tyrosine kinase 6 (Homo sapiens, UniProt Q13882)
[16] = biological target: Fibroblast growth factor receptor 3 (Homo sapiens, UniProt P22607)
[17] = biological target: Receptor tyrosine-protein kinase erbB-4 (Homo sapiens, UniProt Q15303);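 further: ERBB4 member of a kinome-wide kinase profiling panel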
[18] = biological target: Homeodomain-interacting protein kinase 2 (Homo sapiens, UniProt Q9H2X6);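 further: measured within a kinome-wide kinase profiling panel, HIPK2 being one panel member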
[19] = biological target: Serine/threonine-protein kinase pim-1 (Homo sapiens, UniProt P11309)
Sequence of Serine/threonine-protein kinase pim-1 (P11309 whole entry): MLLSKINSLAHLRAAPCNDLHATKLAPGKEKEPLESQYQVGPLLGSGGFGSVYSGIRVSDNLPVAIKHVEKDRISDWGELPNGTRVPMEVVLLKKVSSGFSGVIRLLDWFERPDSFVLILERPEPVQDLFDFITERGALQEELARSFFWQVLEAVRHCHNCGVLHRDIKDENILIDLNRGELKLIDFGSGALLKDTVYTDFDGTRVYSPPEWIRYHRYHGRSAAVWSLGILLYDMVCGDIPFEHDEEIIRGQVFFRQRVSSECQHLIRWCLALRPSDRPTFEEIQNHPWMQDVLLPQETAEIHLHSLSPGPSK

[20] = Vero cell cytotoxicity, cytotoxicity control for M. tuberculosis inhibitor project, purified and synthesized samples, set 3 (AID 504684)
[21] = Vero cell cytotoxicity, dose response, cytotoxicity control for M. tuberculosis growth inhibitor project, Vero cells, purified and synthesized compounds, set 5 (AID 504909); details: Mycobacterium tuberculosis
[22] = THP-1 cell cytotoxicity, dose response, cytotoxicity control, set 3 (AID 504852); details: Mycobacterium tuberculosis
[23] = A Cell Based Secondary Assay to Explore Cytotoxicity in HepG2 Cells of Compounds that Modulate Mycobacterium tuberculosis in Media Containing Glycerol versus Media without Glycerol (2).
[24] = Vero cell cytotoxicity, dose response, cytotoxicity control for M. tuberculosis growth inhibitor project, Vero cells, purified and synthesized compounds, set 4 (AID 504854); details: Mycobacterium tuberculosis
[25] = A Cell Based Secondary Assay to Explore Cytotoxicity in THP-1 Cells of Compounds that Modulate Mycobacterium tuberculosis in Media Containing Glycerol versus Media without Glycerol (2).
[26] = THP-1 cell cytotoxicity, cytotoxicity control, set 4 (AID 504911); details: Mycobacterium tuberculosis
[27] = HepG2 cell cytotoxicity, dose response, cytotoxicity control, set 3 (AID 504853); details: Mycobacterium tuberculosis

## Nc1nc(NCC2CCCO2)nc(Nc2ccc(F)cc2)c1[N+](=O)[O-] (configuration not stated)
[1]
  AC50: 2.42 µM (active)
[2]
  AC50: 0.802 µM (active)

## CCC1C(=O)N(C)c2cnc(Nc3ccc(C(=O)NC4CCN(C)CC4)cc3OC)nc2N1C1CCCC1 (configuration not stated)
[3]
  Ki: 1.58 µM (active)
[4]
  Ki: > 6.31 µM (inactive)
[5]
  Ki: > 3.16 µM (inactive)
[6]
  Ki: 0.2 µM (active)
[7]
  Ki: 0.631 µM (active)
[8]
  Ki: > 2 µM (inactive)
[9]
  Ki: > 2 µM (inactive)
[10]
  Ki: > 6.31 µM (inactive)
[11]
  Ki: > 0.631 µM (inactive)
[12]
  Ki: > 6.31 µM (inactive)
[13]
  Ki: > 6.31 µM (inactive)
[14]
  Ki: > 5.01 µM (inactive)
[15]
  Ki: > 2.51 µM (inactive)
[16]
  Ki: > 2 µM (inactive)
[17]
  Ki: > 3.98 µM (inactive)
[18]
  Ki: > 3.16 µM (inactive)
[19]
  Ki: > 10 µM (inactive)

## Cc1cc(C)n2nc(N)c(/N=N/c3ccccc3)c2n1
[20]
  CC50: 83.7 µM (active)
[21]
  CC50: > 100 µM (active)
[22]
  CC50: > 100 µM (active)
[23]
  CC50: > 50 µM (active)
[24]
  CC50: 93 µM (active)
[25]
  CC50: > 100 µM (active)
[26]
  CC50: > 99.5 µM (active)
[27]
  CC50: > 50 µM (active)
